According to patent US12371454B2, “Cyclic peptide compound having Kras inhibitory action” (priority 2019, dated 2025):
Starred links: 1 amine or outer side, 2 acyl side, 3 side chain; linkers in the order of their positions; H or OH if unused. Positions of bridges follow the written chain, without caps; N, C: chain ends. Non-standard residues stand in square brackets, D forms with d. Residues, ends and D or L forms follow the SMILES beside them. *: point of attachment. hPhe(3-Cl-4-CF3) = N[C@@H](CCc1ccc(C(F)(F)F)c(Cl)c1)C(=O)O; hPhe(3-F,4-CF3) = N[C@@H](CCc1ccc(C(F)(F)F)c(F)c1)C(=O)O; X60 = CC(C)Oc1cc(CC[C@H](N[*:1])C(=O)[*:2])cc(Cl)c1Cl; NMePhe(4-CF3) = CN[C@@H](Cc1ccc(C(F)(F)F)cc1)C(=O)O; 3Oxa8azabicyclo(3.2.1)octane = C1CC2COCC1N2*; hPhe(4-Cl) = N[C@@H](CCc1ccc(Cl)cc1)C(=O)O; NMeGly(cPent) = CN[C@H](C(=O)O)C1CCCC1; NMeAla(cPr) = CN[C@@H](CC1CC1)C(=O)O; mXylylene = c1cc(C[*:1])cc(C[*:2])c1; NMeCha = CN[C@@H](CC1CCCCC1)C(=O)O; Hyp = O=C(O)[C@@H]1C[C@@H](O)CN1; NMeChg = CN[C@H](C(=O)O)C1CCCCC1; NMeI = CC[C@H](C)[C@H](NC)C(=O)O; NMeD = CN[C@@H](CC(=O)O)C(=O)O; NMeL = CN[C@@H](CC(C)C)C(=O)O; NMeV = CN[C@H](C(=O)O)C(C)C; d(β3hA) = C[C@@H](N)CC(=O)O; NMeS = CN[C@@H](CO)C(=O)O; NMeA = CN[C@@H](C)C(=O)O; Piperidide = C1CCN(*)CC1; Pyrrolidide = C1CCN(*)C1; dNMeA = CN[C@H](C)C(=O)O; Ac5c = NC1(C(=O)O)CCCC1; Aze = O=C(O)[C@@H]1CCN1; Sar = CNCC(=O)O; Propyl = CCC*

What follows are molecules tested on Human pancreatic cancer cell line AsPC-1 (assay: Measurement of AsPC-1 cell growth inhibition (AsPC-1 CGI)). Settings: 96 h.
Assay type: cell-based
Method in brief: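 AsPC-1 cells in 15% FBS RPMI-1640 were exposed to test compound for 96 hours at 37° C, with CellTiter-Glo as endpoint.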

**Q.** Which IC50 does the source give for CC[C@H](C)[C@@H]1NC(=O)[C@H](CC(C)C)N(C)C(=O)C[C@@H](C(=O)N2CCCCC2)N(C)C(=O)[C@H](C(C)C)N(C)C(=O)C2(CCCC2)NC(=O)[C@@H]2CCCN2C(=O)[C@H](CCc2ccc(Cl)cc2)NC(=O)CN(C)C(=O)[C@H](CC2CCCCC2)N(C)C(=O)[C@@H]2CCN2C(=O)CN(C)C1=O [Compound 916] ([NMeL]I[Sar][Aze][NMeCha][Sar][hPhe(4-Cl)]P[Ac5c][NMeV][NMeD]-Piperidide; lactam N-11) here?
**A.** The IC50 was 100 to 500 nM.

**Q.** With CCCOC[C@H]1C(=O)N(C)CC(=O)N[C@@H](CCc2ccc(C(F)(F)F)c(F)c2)C(=O)N2CCC[C@H]2C(=O)NC2(CCCC2)C(=O)N(C)[C@@H](C2CCCC2)C(=O)N(C)[C@H](C(=O)N2C3CCC2COC3)CC(=O)N(C)[C@@H](CC(C)C)C(=O)N[C@@H]([C@@H](C)CC)C(=O)N(C)[C@@H](C)C(=O)N2CC[C@H]2C(=O)N1C [Compound 1030] ([NMeL]I[NMeA][Aze][NMeS](Propyl)[Sar][hPhe(3-F,4-CF3)]P[Ac5c][NMeGly(cPent)][NMeD]-{3Oxa8azabicyclo(3.2.1)octane}; lactam N-11) as the molecule, how does the IC50 read?
**A.** The IC50 was 20 to 50 nM.

**Q.** For CC[C@H](C)[C@@H]1NC(=O)[C@H](C(C)C)N(C)C(=O)C[C@@H](C(=O)N2CCCCC2)N(C)C(=O)[C@H](C(C)C)N(C)C(=O)C2(CCCC2)NC(=O)[C@@H]2CCCN2C(=O)[C@H](CCc2ccc(C(F)(F)F)c(Cl)c2)NC(=O)CN(C)C(=O)[C@H](CC2CCCCC2)N(C)C(=O)[C@@H]2CCN2C(=O)[C@H](C)N(C)C1=O [Compound 1767] ([NMeV]I[NMeA][Aze][NMeCha][Sar][hPhe(3-Cl-4-CF3)]P[Ac5c][NMeV][NMeD]-Piperidide; lactam N-11), which IC50 is on record?
**A.** The IC50 was 100 to 500 nM.

**Q.** How did the IC50 turn out when CC[C@H](C)[C@@H]1NC(=O)[C@H](CC(C)C)N(C)C(=O)C[C@@H](C(=O)N2CCCCC2)N(C)C(=O)[C@H](CC(C)C)N(C)C(=O)C2(CCCC2)NC(=O)[C@@H]2C[C@@H](OCc3cccc(C)c3)CN2C(=O)[C@H](CCc2ccc(C(F)(F)F)c(F)c2)NC(=O)CN(C)C(=O)[C@H](CC2CCCCC2)N(C)C(=O)CN(C)C(=O)CN(C)C1=O [Compound 2125] ([NMeL]I[Sar][Sar][NMeCha][Sar][hPhe(3-F,4-CF3)][Hyp](mXylylene)[Ac5c][NMeL][NMeD]-Piperidide; lactam N-11) was run?
**A.** The IC50 was greater than 500 nM.

**Q.** CC[C@H](C)[C@@H]1NC(=O)[C@H](CC2CC2)N(C)C(=O)C[C@@H](C)NC(=O)[C@H](C(C)C)N(C)C(=O)C2(CCCC2)NC(=O)[C@@H]2CCCN2C(=O)[C@H](CCc2ccc(C(F)(F)F)c(Cl)c2)NC(=O)CN(C)C(=O)[C@H](CC2CCCCC2)N(C)C(=O)[C@@H]2CCN2C(=O)[C@H](C)N(C)C1=O [Compound 771] (cyclo([Ac5c][NMeV][d(β3hA)][NMeAla(cPr)]I[NMeA][Aze][NMeCha][Sar][hPhe(3-Cl-4-CF3)]P)) was tested. Which IC50 did it give?
**A.** Its IC50 is 100 to 500 nM.

**Q.** Which IC50 does the source give for CC[C@H](C)[C@@H]1NC(=O)[C@H](C)N(C)C(=O)C[C@@H](C)NC(=O)[C@H](C2CCCC2)N(C)C(=O)C2(CCCC2)NC(=O)[C@@H]2CCCN2C(=O)[C@H](CCc2ccc(C(F)(F)F)c(Cl)c2)NC(=O)[C@@H](C)N(C)C(=O)[C@H](Cc2ccc(C(F)(F)F)cc2)N(C)C(=O)[C@@H]2CCN2C(=O)[C@H](C)N(C)C1=O [Compound 1497] (cyclo([Ac5c][NMeGly(cPent)][d(β3hA)][NMeA]I[NMeA][Aze][NMePhe(4-CF3)][dNMeA][hPhe(3-Cl-4-CF3)]P)) here?
**A.** The IC50 was 100 to 500 nM.

**Q.** For CC[C@H](C)[C@@H]1NC(=O)[C@H](CC(C)C)N(C)C(=O)C[C@@H](C(=O)N2CCCCC2)N(C)C(=O)[C@H](C(C)C)N(C)C(=O)C2(CCCC2)NC(=O)[C@@H]2CCCN2C(=O)[C@H](CCc2ccc(C(F)(F)F)c(F)c2)NC(=O)CN(C)C(=O)[C@H](CC2CCCCC2)N(C)C(=O)[C@@H]2CCN2C(=O)[C@H](C)N(C)C1=O [Compound 1040] ([NMeL]I[NMeA][Aze][NMeCha][Sar][hPhe(3-F,4-CF3)]P[Ac5c][NMeV][NMeD]-Piperidide; lactam N-11), which IC50 is on record?
**A.** The IC50 was 100 to 500 nM.

**Q.** With CC[C@H](C)[C@@H]1NC(=O)[C@H](C)N(C)C(=O)C[C@@H](C(=O)N2CCCCC2)N(C)C(=O)[C@H](C2CCCCC2)N(C)C(=O)C2(CCCC2)NC(=O)[C@@H]2CCCN2C(=O)[C@H](CCc2cc(Cl)c(Cl)c(OC(C)C)c2)NC(=O)CN(C)C(=O)[C@H](CC2CCCCC2)N(C)C(=O)CN(C)C(=O)CN(C)C1=O [Compound 2062] ([NMeA]I[Sar][Sar][NMeCha][Sar][X60]P[Ac5c][NMeChg][NMeD]-Piperidide; lactam N-11; C-terminus assumed) as the molecule, how does the IC50 read?
**A.** The IC50 was greater than 500 nM.

**Q.** For CCCOC[C@H]1C(=O)N(C)CC(=O)N[C@@H](CCc2ccc(C(F)(F)F)c(F)c2)C(=O)N2CCC[C@H]2C(=O)NC2(CCCC2)C(=O)N(C)[C@@H]([C@@H](C)CC)C(=O)N(C)[C@H](C(=O)N2CCCC2)CC(=O)N(C)[C@@H](CC(C)C)C(=O)N[C@@H]([C@@H](C)CC)C(=O)N(C)[C@@H](C)C(=O)N2CC[C@H]2C(=O)N1C [Compound 684] ([NMeL]I[NMeA][Aze][NMeS](Propyl)[Sar][hPhe(3-F,4-CF3)]P[Ac5c][NMeI][NMeD]-Pyrrolidide; lactam N-11), which IC50 is on record?
**A.** Its IC50 is 20 to 50 nM.
